Reference: PMC12903969, “Discovery of a Novel and Potent Kir4.1 Inhibitor as a Safe and Rapid‐Onset Antidepressant Agent in Mice” (Advanced Science, 2025)
Several values for one entry are separate records, joined by “and”; a condition that tells them apart may be missing. Equal entries are not always repeated.

Legend:
Type in all cases: in vivo
[1] = system: C57BL/6J mice; test: DOI-induced head twitch response (HTR); conditions: 10 mg kg−1, 30-min test period
Protocol: Male C57BL/6J mice were habituated to the testing chambers for 30 min and 24 h after receiving acute doses of (S)‐ketamine (10 mg kg^−1, i.p.) or JX3212 (10 mg kg^−1, i.p.). Thirty minutes later, the mice received DOI at a dose of 5 mg kg^−1 (i.p.), and the head‐twitch response was scored over 30 min.

[2] = system: C57BL/6J mice after CSDS; test: CSDS model, social interaction test; conditions: single i.p. injection 10 mg kg−1
Protocol: (§1) The 10‐day CSDS paradigm was conducted as previously described.^[ [24] ^] CD‐1 aggressive mice were singly housed in defeat cages on one side of a perforated plexiglass partition 24 h before the defeat session. Experimental C57BL/6J mice were placed daily on the resident cage side of a novel CD‐1 aggressor that rapidly initiated a physical attack on the intruder. After 10‐min of social defeat, the intruder mice were housed on the opposite side of the partition within a shared home cage, experiencing further sensory contact for the subsequent 24 h. In contrast, control mice were maintained in their home cages and allowed to explore the empty defeat cages for 10 min each day.
C57BL/6J mice, comprising both control and experimental groups, were placed individually into the social open field with a plexiglass enclosure positioned along the side wall. Movement parameters, including the time spent in the interaction zone, corner zones, and locomotion, were monitored and analyzed over the two test sessions using the AnyMaze Tracking System. In the first session, the mice freely explored the arena for 2.5 min. Then, a new aggressive CD‐1 mouse was introduced into the plexiglass enclosure, and the experimental mice returned to the arena for the second 2.5‐min session. The social interaction ratio was determined as the ratio between the time the experimental mice spent in the interaction zone when the target CD‐1 was present and the time spent in the zone when it was absent.

[3] = system: C57BL/6J mice after CSDS; test: CSDS model, forced swim test
Protocol: as §1
Mice were placed individually in a transparent glass cylinder (25 cm high, 10 cm wide) filled with water (temperature 23–25 °C) to a depth of 10 cm, and prevented from making contact with the bottom. Mice behaviors were videotaped from each side. The observation period lasted for 6 min, with the final 4 min used to measure immobile behavior, which was processed using the AnyMaze Tracking System (Stoelting).

[4] = system: C57BL/6J mice; test: Novelty-suppressed feeding test (NSFT); conditions: single dose 10 mg kg−1 i.p., 1 h after administration
Protocol: The mice were individually housed in new cages and deprived of food for 24 h. The testing equipment was a brightly lit plastic box measuring 40 × 40 × 30 cm^3 with a light intensity of 1100–1200 lux. Each mouse was positioned in a corner of the device with one food pellet located at the center. The latency to start chewing food was recorded within 5 min. Immediately thereafter, the mice were placed back in their home cage with pre‐measured food, and the amount consumed in the next 5 min was used as a baseline to account for appetite changes that might affect the outcome.

[5] = system: C57BL/6J mice after CSDS; test: Chronic social defeat stress (CSDS) model, sucrose preference test
Protocol: as §1
Mice were individually housed with two identical bottles containing either 1% sucrose solution or tap water for 24 h. The bottles were then replaced to eliminate potential positional bias, followed by an additional 24‐h period with the same solutions. Subsequently, the mice were provided with tap water for 24 h. During the experimental phase, new bottles filled with either 1% sucrose solution or tap water were presented for 24 h, and the bottles were changed every 12 h. The bottles were weighed both before and after the 24‐h test to assess consumption of each solution.

[6] = single i.p. injection 10 mg kg−1

SMILES: CN[C@]1(c2ccccc2Cl)CCCCC1=O [(S)‐ketamine]
- number of DOI-induced head twitches vs vehicle (in words) [1]: significantly more
- CSDS: time spent in corners in SIT (in words) [2]: shorter duration spent in the corners
- FST immobility time after CSDS, single mice ([3]; 10 mg/kg (Fig 3I)): 77.33 and 102.37 and 98.48 and 95.78 and 108.86 and 103.57 and 122.58
- CSDS: immobility in FST (in words) [3, 6]: no significant impact
- NSFT latency to feed (in words) [4]: significantly reduced the latency to feed
- SPT sucrose preference after CSDS, single mice ([5]; 10 mg/kg (Fig 3H)): 0.9625 and 0.9959 and 0.9967 and 0.7227 and 0.9713 and 0.6431 and 0.7826 and 0.9953
- CSDS: sucrose preference in SPT (in words) [5, 6]: increased sucrose preference
